Literature values as cited in US6048869A, “Tricyclic compounds” (Merck & Co., Inc., priority 1999, dated 2000).

How the values were obtained:
5α-reductase 1 = settings: isozyme predominating in sebaceous glands of facial and skin tissue; Harris et al. 1992

SMILES: CC(C)(C)NC(=O)[C@H]1CC[C@H]2[C@@H]3CC[C@H]4NC(=O)C=C[C@]4(C)[C@H]3CC[C@]12C [Finasteride, 17,-(N-tert-butylcarbamoyl)-3-oxo-4-aza-5 α-androst-1-ene-3-one]
- inhibition of the human prostate enzyme (5α-reductase 2; human prostate enzyme): potent inhibitor
- inhibition of type 2 5α-reductase (5α-reductase 2; isozyme predominating in the prostate): potently inhibited
- sensitivity of type 1 5α-reductase to finasteride (5α-reductase 1): relatively insensitive
